One data set deals with C2C12 cells. The data set can be described thus: Oxygen consumption rate (OCR) of C2C12 cells, extracellular flux analyzer. In kind it is cell-based, mouse. The following applies: 100 μM metformin or 10 μM GW501516 for 24 hours; for OCR after FCCP addition: compared to DMSO-treated cells. As for the experimental part:
PPARδ is known to induce the expression of lipid metabolism-related genes and enhance β-oxidation of fatty acids, especially in skeletal muscle. The PPARδ agonist is expected to have an effect of increasing mitochondrial activity. […] Specifically, using C2C12 cells, the oxygen consumption rate (OCR: Oxygen Consumption Rate) of the cells was measured by a cell metabolism-measuring device (extracellular flux analyzer manufactured by Agilemt Technologies Inc.).
In this metabolic measurement, four inhibitors were used to force changes in intracellular metabolism (FIG. 14). First, oligomycin, which inhibits Complex V of the electron transport chain, was added. […] Next, the uncoupling agent FCCP (Carbonyl cyanide-p-trifluoromethoxyphenylhydrazone) was added. FCCP forcibly discharges hydrogen ions in the mitochondrial membrane to the outside of the membrane to eliminate the proton concentration gradient. Since a proton concentration gradient is required to produce ATP, the TCA cycle and electron transport chain are maximally activated when the gradient is forcibly eliminated by FCCP. This makes it possible to measure the maximum respiration rate of cells. It is known that OCR at this time is further increased in cells in which fatty acid oxidation is enhanced. Finally, rotenone and antimycin were added. Rotenone inhibits the electron transport chain complex I, and antimycin inhibits complex III.

The subject of data set [1] is recruitment of PPARδ to PPRE. The data set can be described thus: Chromatin immunoprecipitation of FLAG-PPARδ in differentiated C2C12-PPARδ cells. In kind it is cell-based, mouse. The following applies: 100 μM metformin or 1 μM GW501516, day 6 of differentiation, IgG control set as 1.
Procedure: First, C2C12-PPARδ cells, in which FLAG-tagged PPARδ (FLAG-PPARδ) was constitutively over-expressed in C2C12 cells were prepared. […] The treated cells were subjected to chromatin immunoprecipitation (Conventional ChIP) using an antibody that recognizes the FLAG tag.
For a further data set, the system named is PPARδ. The experiment in a line: Luciferase assay with GAL4-Ppard and MH2004 reporter in CV1 cells. In kind it is cell-based. To be noted: for Light emission intensity (RLU) Average: 10 μM of each compound in DMSO, 12 hours; for Relative emission intensity Average: 10 μM of each compound, DMSO control defined as 1, n=3. As for the experimental part: Among the compounds (1-1-4), the effects of compound (B-1), compound (B-2), and compound (B-3) on the transcriptional regulation of PPARδ were investigated. The effects on the transcriptional activity of PPARδ were measured by performing a luciferase assay on the cells treated with 10 μM of each compound dissolved in DMSO. Specifically, CV1 cells, which are cultured cells derived from African green monkey kidneys, were seeded on a 24-well plate (1×10^5 cells/well) and cultured until they became 70% confluent. DMEM containing 10% fetal bovine serum and 1% antibiotic was used as the culture medium. […] Then, the collected cells were lysed in a cell lysis buffer, suspended with a luminescent substrate (firefly luciferin), and the luminescence of the suspension was measured with a luminometer. In addition, the remaining suspension was mixed with Renilla luciferin and the amount of luminescence was measured with a luminometer. The result of the amount of light emitted by Renilla luciferin was used as the intrinsic control of gene transfer. Finally, the amount of luminescence of firefly luciferin was calculated as a light emission intensity (RLU) by dividing by the amount of luminescence of Renilla luciferin. The relative emission intensity of the reaction solution treated with each compound was determined as the transcriptional activation ability of PPARδ in each compound treatment, where the light emission intensity of the reaction solution to which an equal amount of DMSO was added (control) was defined as 1. The relative emission intensities were all 1.1 or more in the reaction solutions to which the compounds were added, and the transcriptional activity of PPARδ was increased. […] The effect of the obtained compound (A-4) on PPARδ activity was investigated. […] However, when the addition amount was 50 μM or more, the cells died and it was impossible to measure the transcription activity of PPARδ.

The test system of data set [2] is angptl4, pdk4 and cpt1a genes. The experiment in a line: Quantitative PCR of genes whose expression is induced by PPARδ in C2C12 cells. It is filed as cell-based, mouse. The following applies: 10 μM compound (A-4), 16 hours, relative to Hprt, n=3. As for the experimental part: The effect of compound (A-4) on the expression of the gene whose expression is induced by PPARδ was investigated. Specifically, compound (A-4) was added to mouse skeletal muscle-derived myoblast cell line C2C12 cells, and the expression levels of the angptl4, pdk4 and the cpt1a genes, whose expression is induced by PPARδ (NPL 12), were measured. In addition, the Hprt gene was used as an endogenous control, and GW0742 was used as a positive control for PPARδ activation.
First, C2C12 cells were seeded on a 24-well plate (1×10^5 cells/well) and cultured until 80-90% confluent. DMEM containing 10% bovine serum and 1% antibiotic was used as the culture medium. After culturing for 36 hours, when the target cell density was reached, the entire medium was replaced with a serum-free DMEM medium containing each concentration of compound (A-4), and the cells were cultured for 16 hours (n=3). After culturing, the medium was discarded, a trizol reagent (manufactured by Invitrogen) for RNA extraction was directly added to each well to lyse the cells, and then the total RNA was extracted by ethanol precipitation. Using the obtained total RNA as a template, cDNA was synthesized using the reverse transcriptase “Superscript” (manufactured by […]).
Quantitative PCR was performed using the obtained cDNA as a template. The cDNA of the template, the primer that amplifies each gene to be measured, and the polymerase mix “ssoFast EvaGreen Supermix” (manufactured by Biorad) for quantitative PCR were mixed. Analysis was performed using a real-time PCR detection system “CFX connect (registered trademark)” (manufactured by Biorad).
From the obtained gene expression data, the expression level of each gene was divided by the expression level of the endogenous control gene to calculate the relative expression level.

The target of the next data set is human PPARδ (Homo sapiens, UniProt Q03181). The following applies: in the presence of PPARδ complex (hPPARδ, PGC1α, RXRα).
human PPARδ, sequence (Q03181 whole entry): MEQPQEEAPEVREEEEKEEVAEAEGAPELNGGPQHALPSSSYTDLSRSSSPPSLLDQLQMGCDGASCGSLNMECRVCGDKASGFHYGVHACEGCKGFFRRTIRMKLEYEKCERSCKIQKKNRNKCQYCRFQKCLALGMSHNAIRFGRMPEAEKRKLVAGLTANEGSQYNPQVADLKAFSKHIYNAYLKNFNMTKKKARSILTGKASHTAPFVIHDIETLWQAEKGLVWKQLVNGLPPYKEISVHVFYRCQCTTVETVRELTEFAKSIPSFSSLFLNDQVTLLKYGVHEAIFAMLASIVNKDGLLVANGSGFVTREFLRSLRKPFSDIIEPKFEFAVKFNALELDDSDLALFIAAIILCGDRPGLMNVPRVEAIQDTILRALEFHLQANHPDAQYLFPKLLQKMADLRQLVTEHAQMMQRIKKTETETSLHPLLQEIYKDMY
human PPARδ, sequence (P19793 whole entry partner): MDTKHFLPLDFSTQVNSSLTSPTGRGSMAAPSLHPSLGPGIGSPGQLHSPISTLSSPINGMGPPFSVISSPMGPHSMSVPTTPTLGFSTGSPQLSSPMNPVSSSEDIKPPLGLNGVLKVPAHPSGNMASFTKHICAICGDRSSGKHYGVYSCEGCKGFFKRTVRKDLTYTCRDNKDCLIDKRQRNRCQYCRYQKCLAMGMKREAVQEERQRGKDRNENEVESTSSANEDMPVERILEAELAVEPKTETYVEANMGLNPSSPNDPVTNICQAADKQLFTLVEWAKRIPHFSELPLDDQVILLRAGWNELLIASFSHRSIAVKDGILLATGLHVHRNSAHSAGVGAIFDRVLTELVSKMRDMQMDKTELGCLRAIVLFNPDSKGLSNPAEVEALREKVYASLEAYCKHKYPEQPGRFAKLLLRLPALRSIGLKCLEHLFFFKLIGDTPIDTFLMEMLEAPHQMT
human PPARδ, sequence (Q9UBK2 whole entry partner): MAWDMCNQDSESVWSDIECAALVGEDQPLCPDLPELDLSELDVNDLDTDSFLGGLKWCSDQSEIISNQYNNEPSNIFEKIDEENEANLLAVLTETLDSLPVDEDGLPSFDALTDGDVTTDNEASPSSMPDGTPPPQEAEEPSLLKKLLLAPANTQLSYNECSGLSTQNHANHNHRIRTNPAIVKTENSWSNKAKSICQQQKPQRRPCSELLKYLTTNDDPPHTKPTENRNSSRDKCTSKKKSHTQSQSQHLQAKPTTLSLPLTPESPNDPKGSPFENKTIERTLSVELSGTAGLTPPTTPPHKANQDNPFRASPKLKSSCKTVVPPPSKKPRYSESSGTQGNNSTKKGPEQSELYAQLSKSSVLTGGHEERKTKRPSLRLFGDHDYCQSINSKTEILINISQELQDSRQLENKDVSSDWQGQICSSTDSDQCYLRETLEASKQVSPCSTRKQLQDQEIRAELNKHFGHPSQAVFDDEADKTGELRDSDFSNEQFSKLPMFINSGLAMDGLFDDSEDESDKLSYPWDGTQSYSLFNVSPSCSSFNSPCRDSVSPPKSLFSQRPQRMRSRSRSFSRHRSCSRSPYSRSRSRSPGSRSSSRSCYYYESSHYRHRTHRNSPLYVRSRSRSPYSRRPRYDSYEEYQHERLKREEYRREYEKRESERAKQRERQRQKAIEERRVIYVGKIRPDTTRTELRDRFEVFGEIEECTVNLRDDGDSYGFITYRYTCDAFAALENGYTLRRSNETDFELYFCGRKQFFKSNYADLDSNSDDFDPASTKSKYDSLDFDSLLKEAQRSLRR
The test system of the next data set is endogenous AMPK. The experiment in a line: Affinity purification using Met-beads and HepG2 cell extract, binding to AMPK. Also on record: species or system human. The following applies: HepG2 cell extract.
A further data set relates to C57BL/6 mice. The data set can be described thus: Final exercise tolerance test on treadmill (NOS50). The following applies: 25 mg/kg intraperitoneal. It is filed as in vivo. As for the experimental part:
For the metformin-non-administered group, an equal volume of PBS was intraperitoneally administered instead of the metformin/PBS solution.
The training for the final exercise tolerance test, in which the speed at start was 15 m/min and increased by 1 m/min every 10 minutes, and the running time after the speed reached 20 m/min was 10 minutes (1 hour in total), was performed 5 times a week for a total of 4 weeks using a treadmill device.
First, twenty 10-week-old male C57BL/6 mice were divided into 4 groups (5 mice per group). […] In addition, in order to average the motivation for exercise and exercise preference of individual mice in each group, the first exercise tolerance test was performed after training acclimatization to rank the mice, and the mice were divided into 4 groups so that the test results were even. Furthermore, in the test after the training period, the exercise tolerance was evaluated in such a manner that the running time was set as the time until the number of electrode contacts during the test reached 50 (number of shocks: NOS50), the speed at the start was set as 15 m/min and increased by 1 m/min every 10 minutes, and when the speed reached the maximum speed of 30 m/min, the running at the maximum speed was performed until NOS50 was reached.

Another data set concerns the target T1, endogenous PPARα (Homo sapiens, UniProt Q07869).
T1 construct: endogenous in cells; host or cells: HepG2
T1 sequence (Q07869 1-468): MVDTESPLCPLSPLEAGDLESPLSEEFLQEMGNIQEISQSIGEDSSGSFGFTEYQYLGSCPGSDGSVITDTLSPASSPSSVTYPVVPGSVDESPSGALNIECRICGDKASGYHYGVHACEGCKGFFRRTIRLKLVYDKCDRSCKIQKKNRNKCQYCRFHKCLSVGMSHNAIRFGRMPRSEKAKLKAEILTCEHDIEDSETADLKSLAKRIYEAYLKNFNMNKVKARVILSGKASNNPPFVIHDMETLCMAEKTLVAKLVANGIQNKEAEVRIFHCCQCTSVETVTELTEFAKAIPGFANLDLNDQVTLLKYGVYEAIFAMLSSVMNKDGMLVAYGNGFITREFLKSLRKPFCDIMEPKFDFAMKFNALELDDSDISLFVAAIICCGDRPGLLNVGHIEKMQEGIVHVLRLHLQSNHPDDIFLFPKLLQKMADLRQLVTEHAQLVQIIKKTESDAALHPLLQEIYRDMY
The experiment in a line: Affinity purification using Met-beads and HepG2 cell extract, binding to PPARα. The following applies: HepG2 cell extract. As for the experimental part: […] is a member of the nuclear receptor superfamily, with PPARα and […] as the other two family members. Affinity purification was performed using the Met-beads and HepG2 cell extract to verify the binding to endogenous PPARα.

The next data set has as its system CV1 cells. The experiment in a line: Cell death observed in the CV1 luciferase assay. It is filed as cell-based. The following applies: transcription activity impossible to measure. As for the experimental part:
Specifically, CV1 cells, which are cultured cells derived from African green monkey kidneys, were seeded on a 24-well plate (1×10^5 cells/well) and cultured until they became 70% confluent. DMEM containing 10% fetal bovine serum and 1% antibiotic was used as the culture medium. After reaching the desired cell density, the entire medium was removed, and a mixture obtained by mixing 2 μL of MH2004 (plasmid encoding a firefly luciferase gene having a Gal4 activation sequence upstream: 100 ng/μL), 1 μL of pRL-CMV (plasmid encoding the Renilla reniformis luciferase gene directly under the CMV promoter: 100 ng/μL), 2 μL of GAL4-Ppard (plasmid encoding Gal4-DNA binding region fused with PPARδ gene: 100 ng/μL) and 1.5 μL of PEI (polyethylenimine: manufactured by Invitrogen) with 45 μL culture medium “Opti-MEM” (registered trademark) (manufactured by Thermo Fisher Scientific) was added to each well, and the cells were cultured for about 36 hours.
The effect of the obtained compound (A-4) on PPARδ activity was investigated. Specifically, a luciferase assay was carried out in the same manner as in Example 8 except that compound (A-4) dissolved in DMSO (0.1%) was added to the reaction system as a test substance (n=3). […] However, when the addition amount was 50 μM or more, the cells died and it was impossible to measure the transcription activity of PPARδ.

Molecules are shown by their SMILES. Counter-ions that a name gives are not always drawn. A value given as a limit tells only on which side of the number the result lay.

For the compound `Cc1cc(SCc2sc(-c3ccc(C(F)(F)F)cc3)nc2C)ccc1OCC(=O)O` [GW501516], in the data set with C2C12 cells, the “base OCR before the inhibitor treatment” value is “did not change” and the “OCR after FCCP addition” value is “increase in OCR”. In addition, in data set [1], the “recruitment of PPARδ in the vicinity of PPRE on promoters of Angptl4, Pdk4, Plin2 and Ucp3 genes” value is “recruited”.

Regarding `COc1cc(CNC(=N)N)ccc1OCc1ccccc1` [compound (B-3)], in the data set on PPARδ (n=3), the “Light emission intensity (RLU) Average” value is given as 457033. The “Relative emission intensity Average” value in the data set with PPARδ is 2.04.

In the case of `Cc1cc(SCc2sc(-c3ccc(C(F)(F)F)c(F)c3)nc2C)ccc1OCC(=O)O` [GW0742], in data set [2], the “expression level of the angptl4 gene” value is reported as “increased”, the “expression level of the cpt1a gene” value was “increased” and the “expression level of the pdk4 gene” value was “increased”.

As for `N=C(N)NCc1ccc(COCc2ccccc2)cc1` [compound (B-1), N-({4-[(benzyloxy)methyl]phenyl}methyl) guanidine hydrobromide], in the data set with PPARδ (n=3), the “Light emission intensity (RLU) Average” value is reported as 250467. The “Relative emission intensity Average” value in the data set with PPARδ is 1.12.

With `CN(C)C(=N)N=C(N)N` [metformin], in the data set with C2C12 cells, the “base OCR before the inhibitor treatment” value is reported as “did not change” and the “OCR after FCCP addition” value is reported as “increase in OCR”. In addition, the “activation ability compared with GW501516” value on human PPARδ is “about the same as that of GW501516”. The “binding between metformin and AMPK” value in the data set with endogenous AMPK was “not detected”. Moreover, the “exercise tolerance, metformin administration without training” value with C57BL/6 mice (4 weeks, compared with control group) is on record as “did not show an improvement in exercise tolerance”. The “exercise tolerance, training + metformin administration” value in the data set with C57BL/6 mice (training 5 times a week for 4 weeks, compared with training group) is “higher exercise tolerance than the training group”. For the same compound, the “binding between metformin and PPARα” value at endogenous PPARα is listed as “not detected”.

Consider `Cc1cc(SCc2sc(-c3ccc(C(F)(F)F)c(F)c3)nc2C)ccc1CNC(=N)N` [compound (A-4), 1-{4-[({2-[3-fluoro-4-(trifluoromethyl)phenyl]4-methylthiazole-5-yl}methyl)thio]-2-methylbenzyl}guanidine], for which, in [2], the “expression level of the angptl4 gene” value is given as “increased”, the “expression level of the cpt1a gene” value is recorded as “increased” and the “expression level of the pdk4 gene” value is recorded as “increased”. In the data set with PPARδ (depending on the amount added, DMSO (0.1%), n=3), the “transcriptional activity of PPARδ (relative transcriptional activation ability)” value is “tended to increase”. The “addition amount at which the cells died” value in the data set with CV1 cells is at least 50 µM.

Source of the values: patent US12268672B2, “PPARδ activator” (JAPAN SCIENCE AND TECHNOLOGY AGENCY, priority 2018, dated 2025).
